In patent US7115658B2 (priority 2002, dated 2006):

Target: T1, Recombinant HCV polymerase (Hepatitis C virus genotype 1b, UniProt P26663)
T1 construct: 2.5 pmoles (0.15 μg) HCV polymerase protein
Experiment: HCV Polymerase Inhibition Assay
Type: biochemical
Details: primer/template-directed transcription, 30 minutes at 30° C.; category symbol
Protocol: The above-described compounds were tested for activity with HCV polymerase. Recombinant HCV polymerase was tested for its ability to perform primer/template-directed transcription in assays that contained 30 mM tris-HCl pH 7.2, 10 mM MgCl2, 20 mM NaCl, 1 mM Dithiothreitol (DTT), 0.05% Tween-20, 1% glycerol, 5 pmoles biotin-dG12 (primer), 0.5 pmoles poly(rC)300 (template), 1 μM GTP, 0.1–0.3 uCi α-^32P-GTP, and 2.5 pmoles (0.15 μg) HCV polymerase protein in a final volume of 75 μL. Reactions were initiated by addition of enzyme and incubated 30 minutes at 30° C. Reactions were stopped by addition of 33 mM EDTA, and polynucleotide products were collected by filtration through Diethylaminoethyl (DE) Filtermat papers (Wallac). Unincorporated triphosphate was removed by washing the filters with 5% dibasic sodium phosphate. The filters were counted in a Packard Tri-Lux Microbeta scintillation counter (Packard Bioscience, Meriden, Conn.). Compounds to be tested were added at various concentrations, e.g., 1 μm to 50 μm, from stocks in 10% DMSO-water (final DMSO is 1% in reaction).
IC50 values were estimated from the primary cpm data (collected in triplicate) using the formula: cpm (I)=cpm (no inhibitor)(1−([I]/([I]+IC50))). An IC50 value represents the concentration (in μM) of a compound that provides 50% inhibition of polymerase-directed transcription in the above assay. A percent inhibition value is expressed for a compound where it was impractical to calculate an IC50 value with available data. If the IC50 estimated by the above equation was less than 200 nM, it was recalculated using the following equation, which takes into account the enzyme concentration (30 nM) in the assay: cpm(I)=cpm(no inhibitor)(1−((((I+IC50+30e−9)−sqrt(((I+IC50+30e−9)^2)−4×30e−9×I)))/((2) (30e−9))). Curve fitting was performed using the program KaleidaGraph (Synergy Software, Reading, Pa.).

T1 sequence (P26663 2420-3010): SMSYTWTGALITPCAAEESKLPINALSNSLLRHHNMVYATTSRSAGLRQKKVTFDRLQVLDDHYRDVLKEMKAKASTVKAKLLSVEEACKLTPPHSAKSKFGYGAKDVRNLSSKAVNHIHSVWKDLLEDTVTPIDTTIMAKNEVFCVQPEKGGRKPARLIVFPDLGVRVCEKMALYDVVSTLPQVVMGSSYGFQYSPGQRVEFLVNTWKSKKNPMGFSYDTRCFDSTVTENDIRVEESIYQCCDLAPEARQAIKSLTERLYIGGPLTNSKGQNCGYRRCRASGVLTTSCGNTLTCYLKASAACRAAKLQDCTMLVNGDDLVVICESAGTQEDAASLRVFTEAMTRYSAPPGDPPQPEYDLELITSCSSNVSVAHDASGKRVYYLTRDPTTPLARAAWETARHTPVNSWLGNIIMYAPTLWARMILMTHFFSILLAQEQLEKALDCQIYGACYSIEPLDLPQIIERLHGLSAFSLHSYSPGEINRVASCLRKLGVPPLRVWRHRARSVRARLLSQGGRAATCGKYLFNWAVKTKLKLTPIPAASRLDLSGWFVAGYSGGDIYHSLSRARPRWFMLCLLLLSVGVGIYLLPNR

`O=C1CC(=O)OC(CCc2ccc(F)c(Cl)c2)(C2CCCC2)C1` (stereo not drawn) [Example 31, 6-[2-(3-Chloro-4-fluoro-phenyl)-ethyl]-6-cyclopentyl-dihydro-pyran-2,4-dione] and `O=C1CC(=O)OC(CCc2ccc(Cl)c(Cl)c2)(C2CCCC2)C1` (stereo not drawn) [Example 53, 6-Cyclopentyl-6-[2-(3,4-dichloro-phenyl)-ethyl]-dihydro-pyran-2,4-dione] fall in the same range of IC50: 1 to 10 µM for the first, 1 to 10 µM for the second.

`O=C1CC(=O)OC(CCc2ccc3c(c2)OCCO3)(C2CCCC2)C1` (stereo not drawn) [Example 32, 6-Cyclopentyl-6-[2-(2,3-dihydro-benzo[1,4]dioxin-6-yl)-ethyl]-dihydro-pyran-2,4-dione] and `CC1(c2ccc(CCC3(C4CCCC4)CC(=O)CC(=O)O3)cc2F)OCCO1` (stereo not drawn) [Example 60, 6-Cyclopentyl-6-{2-[3-fluoro-4-(2-methyl-[1,3]dioxolan-2-yl)-phenyl]-ethyl}-dihydro-pyran-2,4-dione] fall in the same range of IC50: 1 to 10 µM for the first, 1 to 10 µM for the second.

`CC(C)Oc1cccc(CCC2(C3CCCC3)CC(=O)CC(=O)O2)c1` (stereo not drawn) [Example 33, 6-Cyclopentyl-6-[2-(3-isopropoxy-phenyl)-ethyl]-dihydro-pyran-2,4-dione] and `CC(C)Oc1ccc(CCC2(C3CCCC3)CC(=O)CC(=O)O2)cc1` (stereo not drawn) [Example 41, 6-Cyclopentyl-6-[2-(4-isopropoxy-phenyl)-ethyl]-dihydro-pyran-2,4-dione] fall in the same range of IC50: 1 to 10 µM for the first, 1 to 10 µM for the second.

`COC1=CC(=O)OC(CCc2cccc(C(C)C)c2)(C2CCCC2)C1` (stereo not drawn) [Example 34, 6-Cyclopentyl-6-[2-(3-isopropyl)-ethyl]-4-methyoxy-5,6-dihydro-pyran-2-one] and `COc1ccc(Oc2cccc(CCC3(C4CCCC4)CC(O)=CC(=O)O3)c2)cc1` (stereo not drawn) [Example 45, 6-cyclopentyl-6-{2-[3-(4-methoxyphenoxy)phenyl]ethyl}-4-hydroxy-5,6-dihydro-2H-pyran-2-one] fall in the same range of IC50: 10 to 50 µM for the first, 10 to 50 µM for the second.

First: Cc1cccc(CCC2(C3CCCC3)CC(=O)CC(=O)O2)c1 (stereo not drawn) [Example 36, 6-Cyclopentyl-6-(2-m-tolyl-ethyl)-dihydro-pyran-2,4-dione]
Second: CC(=O)c1cccc(CCC2(C3CCCC3)CC(=O)CC(=O)O2)c1 (stereo not drawn) [Example 64, 6-[2-(3-Acetyl-phenyl)-ethyl]-6-cyclopentyl-dihydro-pyran-2,4-dione]
The IC50 of the first is higher: 10 to 50 µM for the first, 1 to 10 µM for the second.

First: Cn1cccc(CCC2(C3CCCC3)CC(=O)CC(=O)O2)c1=O (stereo not drawn) [Example 37, 6-Cyclopentyl-6-[2-(1-methyl-2-oxo-1,2-dihydro-pyridin-3-yl)-ethyl]-dihydro-pyran-2,4-dione]
Second: CC(=O)c1ccc(CCC2(C3CCCC3)CC(=O)CC(=O)O2)cc1 (stereo not drawn) [Example 63, 6-[2-(4-Acetyl-phenyl)-ethyl]-6-cyclopentyl-dihydro-pyran-2,4-dione]
The IC50 of the first is higher: > 50 µM for the first, 1 to 10 µM for the second. The second is the more potent here.

First: COc1ccc(CCC2(C3CCCC3)CC(=O)CC(=O)O2)c(OC)c1 (stereo not drawn) [Example 38, 6-Cyclopentyl-6-[2-(2,4-dimethoxy-phenyl)-ethyl]-dihydro-pyran-2,4-dione]
Second: COc1cc(OC)c(CCC2(C3CCCC3)CC(=O)CC(=O)O2)cc1Cl (stereo not drawn) [Example 39, 6-[2-(5-chloro-2,4-dimethoxyphenyl)ethyl]-6-cyclopentyldihydro-2H-pyran-2,4(3H)-dione]
The IC50 of the first is higher: 10 to 50 µM for the first, < 1 µM for the second.

`CC(C)c1ccc(CCC2(C3CCCC3)CC(=O)CC(=O)O2)cc1` (stereo not drawn) [Example 40, 6-Cyclopentyl-6-[2-(4-isopropyl-phenyl)-ethyl]-dihydro-pyran-2,4-dione] and `CCCc1ccc(CCC2(C3CCCC3)CC(=O)CC(=O)O2)cc1` (stereo not drawn) [Example 55] fall in the same range of IC50: 1 to 10 µM for the first, 1 to 10 µM for the second.

`CCOc1c(F)cc(CCC2(C3CCCC3)CC(=O)CC(=O)O2)cc1F` (stereo not drawn) [Example 42] and `COc1c(F)cc(CCC2(C3CCCC3)CC(=O)CC(=O)O2)cc1F` (stereo not drawn) [Example 43, 6-Cyclopentyl-6-[2-(3,5-difluoro-4-methoxy-phenyl)-ethyl]-dihydro-pyran-2,4-dione] fall in the same range of IC50: 1 to 10 µM for the first, 1 to 10 µM for the second.

`CCOc1ccc(CCC2(C3CCCC3)CC(=O)CC(=O)O2)cc1Cl` (stereo not drawn) [Example 44] and `CCOc1ccc(CCC2(C3CCCC3)CC(=O)CC(=O)O2)cc1F` (stereo not drawn) [Example 71, 6-Cyclopentyl-6-[2-(4-ethoxy-3-fluoro-phenyl)-ethyl]-dihydro-pyran-2,4-dione] cannot be ordered by IC50: < 1 µM for the first, < 1 µM for the second.

`O=C1C=C(O)CC(CCc2cc3ccccc3o2)(C2CCCC2)O1` (stereo not drawn) [Example 46, 6-[2-(1-benzofuran-2-yl)ethyl]-6-cyclopentyl-4-hydroxy-5,6-dihydro-2H-pyran-2-one] and `O=C1C=C(O)CC(CCc2ccc(Oc3ccccc3)cc2)(C2CCCC2)O1` (stereo not drawn) [Example 47, 6-cyclopentyl-6-[2-(4-phenoxyphenyl)ethyl]-4-hydroxy-5,6-dihydro-2H-pyran-2-one] fall in the same range of IC50: 10 to 50 µM for the first, 10 to 50 µM for the second.

`Cc1noc(COc2ccc(CCC3(C4CCCC4)CC(O)=CC(=O)O3)cc2)n1` (stereo not drawn) [Example 48, 6-Cyclopentyl-6-(2-{4-[(3-methyl-1,2,4-oxadiazol-5-yl)methoxy]phenyl}ethyl)4-hydroxy-5,6-dihydro-2H-pyran-2-one] and `Cc1noc(C)c1COc1ccc(CCC2(C3CCCC3)CC(O)=CC(=O)O2)cc1` (stereo not drawn) [Example 49, 6-Cyclopentyl-6-(2-{4-[(3,5-dimethylisoxazol-4-yl)methoxy]phenyl}ethyl)-4-hydroxy-5,6-dihydro-2H-pyran-2-one] fall in the same range of IC50: 10 to 50 µM for the first, 10 to 50 µM for the second.

`Cn1c(COc2ccc(CCC3(C4CCCC4)CC(O)=CC(=O)O3)cc2)nc2ccccc21` (stereo not drawn) [Example 50, 6-Cyclopentyl-6-(2-{4-[(1-methyl-1H-benzimidazol-2-yl)methoxy]phenyl}ethyl)-4-hydroxy-5,6-dihydro-2H-pyran-2-one] and `O=C1C=C(O)CC(CCc2ccc(OCc3ccc(Cl)c(Cl)c3)cc2)(C2CCCC2)O1` (stereo not drawn) [Example 51, 6-Cyclopentyl-6-(2-{4-[(3,4-dichlorobenzyl)oxy]phenyl}ethyl)-4-hydroxy-5,6-dihydro-2H-pyran-2-one] fall in the same range of IC50: 10 to 50 µM for the first, 10 to 50 µM for the second.

First: O=C1C=C(O)CC(CCc2ccc(OCc3ccc(C(F)(F)F)nc3)cc2)(C2CCCC2)O1 (stereo not drawn) [Example 52, 6-Cyclopentyl-6-[2-(4-{[6-(trifluoromethyl)pyridin-3-yl]methoxy}phenyl)ethyl]4-hydroxy-5,6-dihydro-2H-pyran-2-one]
Second: COC(=O)c1ccc(CCC2(C3CCCC3)CC(=O)CC(=O)O2)cc1 (stereo not drawn) [Example 65, 4-[2-(2-Cyclopentyl-4,6-dioxo-tetrahydro-pyran-2-yl)-ethyl]-benzoic acid methyl ester]
The IC50 of the first is higher: 10 to 50 µM for the first, 1 to 10 µM for the second. The second is the more potent here.

Compared with `O=C1CC(=O)OC(CCc2ccc(F)c(F)c2)(C2CCCC2)C1` (stereo not drawn) [Example 54, 6-Cyclopentyl-6-[2-(3,4-difluoro-phenyl)-ethyl]-dihydro-pyran-2,4-dione], `CC(=O)c1ccc(CCC2(C3CCCC3)CC(=O)CC(=O)O2)cc1F` (stereo not drawn) [Example 59, 6-[2-(4-Acetyl-3-fluoro-phenyl)-ethyl]-6-cyclopentyl-dihydro-pyran-2,4-dione] is lower in IC50: 10 to 50 µM for the first, 1 to 10 µM for the second. The second is the more potent here.

`O=C1CC(=O)OC(CCc2ccc(OC3CCC3)c(F)c2)(C2CCCC2)C1` (stereo not drawn) [Example 56, 6-[2-(4-Cyclobutoxy-3-fluoro-phenyl)-ethyl]-6-cyclopentyl-dihydro-pyran-2,4-dione] and `O=C1CC(=O)OC(CCc2ccc(OCC3CC3)c(F)c2)(C2CCCC2)C1` (stereo not drawn) [Example 57, 6-Cyclopentyl-6-[2-(4-cyclopropylmethoxy-3-fluoro-phenyl)-ethyl]-dihydro-pyran-2,4-dione] fall in the same range of IC50: 1 to 10 µM for the first, 1 to 10 µM for the second.

Compared with `COc1ccc(OCC2(C3CCCC3)CC(=O)CC(=O)O2)cc1` (stereo not drawn) [Example 58, 6-Cyclopentyl-6-(4-methoxy-phenoxymethyl)-dihydro-pyran-2,4-dione], `CC(C)COc1ccc(CCC2(C3CCCC3)CC(=O)CC(=O)O2)cc1F` (stereo not drawn) [Example 70, 6-Cyclopentyl-6-[2-(3-fluoro-4-isobutoxy-phenyl)-ethyl]-dihydro-pyran-2,4-dione] is lower in IC50: > 50 µM for the first, 1 to 10 µM for the second. The second is the more potent here.

First: CC(=O)c1ccc(CCC2(C3CCCC3)CC(=O)CC(=O)O2)cc1Cl (stereo not drawn) [Example 61, 6-[2-(4-Acetyl-3-chloro-phenyl)-ethyl]-6-cyclopentyl-dihydro-pyran-2,4-dione]
Second: CC1(c2ccc(CCC3(C4CCCC4)CC(=O)CC(=O)O3)cc2Cl)OCCO1 (stereo not drawn) [Example 62, 6-{2-[3-Chloro-4-(2-methyl-[1,3]dioxolan-2-yl)-phenyl]-ethyl}-6-cyclopentyl-dihydro-pyran-2,4-dione]
The IC50 of the first is higher: 1 to 10 µM for the first, < 1 µM for the second.

First: CC1(c2ccc(CCC3(C4CCCC4)CC(=O)CC(=O)O3)cc2)CC(=O)CC(=O)O1 (stereo not drawn) [Example 66]
Second: O=C1CC(=O)OC(CCc2ccc(C(=O)N3CCOCC3)cc2)(C2CCCC2)C1 (stereo not drawn) [Example 68, 6-Cyclopentyl-6-{2-[4-(morpholine-4-carbonyl)-phenyl]-ethyl}-dihydro-pyran-2,4-dione]
The IC50 of the first is lower: < 1 µM for the first, > 50 µM for the second. The first is the more potent here.

In the case of `O=C1CC(=O)OC(CCc2ccc(C(=O)N3CCC(O)CC3)cc2)(C2CCCC2)C1` (stereo not drawn) [Example 67, 6-Cyclopentyl-6-(2-[4-(4-hydroxy-piperidine-1-carbonyl)-phenyl]-ethyl}-dihydro-pyran-2,4-dione], the IC50 is reported as > 50 µM.
